Like-named read-outs stand apart in the source and are kept apart here.
Tests used:
NGP = assay: IncuCyte live-cell imaging, antiproliferative effect; assay type: cell-based; settings: Homo sapiens, 72 h
In short: (§1)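 Cells seeded in 384-well plates (neuroblastoma 1200–5000, HEK293T 600 cells/well), adhered overnight, then compound-treated in duplicate or triplicate; confluency tracked by IncuCyte live-cell imaging. Normalized confluence averaged from 3 experiments; absolute GI50 interpolated from four-parameter variable-slope curves.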

SJNB-8 = assay: as above; assay type: cell-based; settings: Homo sapiens, 72 h, read-out: Cell GI50 72h, SJNB-8
In short: as §1

SK-N-AS = assay: as above; assay type: cell-based; settings: Homo sapiens, 72 h, read-out: Cell GI50 72h
In short: as §1

AURKB = target: T1, AURKB (Homo sapiens, UniProt Q96GD4); assay: AURKB binding assay (KINOMEscan / KdELECT, Eurofins Discovery)
T1 construct: purchased Eurofins Discovery
T1 sequence (Q96GD4 whole entry): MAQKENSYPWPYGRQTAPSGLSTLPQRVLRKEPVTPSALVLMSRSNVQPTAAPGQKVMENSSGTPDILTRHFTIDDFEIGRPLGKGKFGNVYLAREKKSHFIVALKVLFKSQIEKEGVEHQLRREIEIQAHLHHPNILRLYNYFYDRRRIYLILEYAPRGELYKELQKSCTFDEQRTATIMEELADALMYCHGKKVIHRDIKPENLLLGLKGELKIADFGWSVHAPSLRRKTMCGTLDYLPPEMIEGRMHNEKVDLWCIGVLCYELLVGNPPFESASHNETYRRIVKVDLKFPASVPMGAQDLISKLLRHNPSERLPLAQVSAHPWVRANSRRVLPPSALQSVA
Experimental: AURKA, AURKB and CRBN binding assays were performed by Eurofins Discovery using the KdELECT Kinase Assay Panel (AURKA and AURKB), or the E3scan Ligand Binding Assay Technology (CRBN). More information can be found on the Eurofins Discovery Web site.
Graphs were generated using GraphPad Prism Software (version 10.1.2) or RStudio (R-4.3.2). All dose–response curves were computed on GraphPad Prism using the Variable Slope (four parameters) equation. Absolute half-maximal degradation (DC50), growth inhibitory (GI50) and enzymatic inhibitory (IC50) concentrations, as well as inhibition constants (Ki) were derived from dose–response curves via interpolation. Statistical tests were performed on GraphPad Prism and detailed in the figure legends. Unless otherwise stated, “n” in the figure legends indicates the number of independent experiments conducted at different times.

Plasma stability assay = assay type: in vitro ADME, CD-1 mouse; settings: for half-life at 1 μM: CD-1 mouse plasma, 37 °C, read-out: plasma t1/2
Experimental: (§2) Plasma and metabolic stability tests were performed by Eurofins Discovery. For the plasma stability assay, test compounds were incubated in CD-1 mouse plasma for 0, 0.5, 1, 1.5, and 2 h at 37 °C at a concentration of 1 μM. For the metabolic stability assay, test compounds were incubated at 37 °C in either (1) CD-1 mouse liver microsomes (MLM) (0.1 mg/mL) at a concentration of 0.1 μM for 0, 15, 30, 45, and 60 min or (2) CD-1 mouse hepatocytes (MH) (0.7 million viable cells/mL) at a concentration of 1 μM for 0, 0.5, 1, 1.5, and 2 h. At the respective time points, acetonitrile was added to the incubation mixture followed by centrifugation. Samples were analyzed by HPLC-MS/MS and peak areas were recorded for each analyte. Compound stability, expressed as the percentage of parent compound remaining, was calculated by comparing the peak area of the compound at each time point relative to that of the 0h time point. Percentage compound remaining is plotted as a function of time as a logarithmic curve. Half-life (t 1/2) is estimated from the slope of the initial linear range of the curve, assuming first-order kinetics. […] Both plasma and metabolic assay experiments were performed once with 2 replicate samples each.

[1] = In vivo pharmacokinetics study; set-up: species or system ICR (CD-1) mice; settings: for clearance / bioavailability: male, ICR (CD-1), mouse, plasma; for clearance: iv, 15 mg/kg, read-out: CLIV, mouse (in vivo systemic clearance); for clearance / CLIV, mouse (in vivo systemic clearance): IV 15 mg/kg, noncompartmental analysis; for bioavailability: mice, PO 30 mg/kg vs IV 15 mg/kg
Experimental: Both the in vivo pharmacokinetics and in vivo pharmacodynamics studies were performed by Eurofins Pharmacology Discovery Services. All mice were provided by BioLasco Taiwan (under Charles River Laboratories Licensee). Animals were acclimated for 3 days prior to use and were confirmed to be in good health. All aspects of this work including housing, experimentation, and animal disposal were performed in general accordance with the “Guide for the Care and Use of Laboratory Animals: Eighth Edition” (National Academies Press, Washington, DC. 2011) in a AAALAC-accredited laboratory animal facility. In addition, the animal care and use protocol was reviewed and approved by the IACUC at Eurofins Pharmacology Discovery Services; IN020-08202020 and ON002-07142023.
Male ICR (CD-1) mice, weighing 30 ± 5 g, were given intravenous (IV), intraperitoneal (IP) or oral gavage (PO) administrations of PROTACs at 15 mg/kg (IV and IP) or 30 mg/kg (PO). Dosing volumes used were 5 mL/kg (IV and IP) and 10 mL/kg (PO). The test compounds were dissolved in 5% DMSO/5% Solutol HS15/90% PBS. Serial blood samples were collected at 0.05, 0.167, 0.5, 1, 2, 4, 8, 12 h postadministration (an additional 24h sample was collected for IV-administered mice). Blood samples were collected from three animals at each time point via facial vein (±50 μL) for the first time points and cardiac puncture (±300 μL) for the final time point and stored in tubes coated with lithium heparin. Within 1h of collection, samples were mixed gently and centrifuged at 2500 g for 15 min at 4 °C. Plasma samples were then harvested and kept frozen at −70 °C until further processing. Samples were processed using acetonitrile precipitation and analyzed by LC–MS/MS. Mean plasma concentrations were plotted as a function of time and the fundamental PK parameters were obtained from a noncompartmental analysis (NCA) using WinNonlin. Free drug levels (C p,u) for SK4454 and SK5527 were calculated by factoring in their plasma protein binding (f u) values using the following formula: C p,u = C p * f u.

[2] = Metabolic stability in mouse hepatocytes (MH); assay type: in vitro ADME, CD-1 mouse; settings: CD-1
Experimental: as §2

Compound | GI50 (SK-N-AS) [nM] | Ki (AURKB) [nM] | half-life at 1 μM (Plasma stability assay) [h] | clearance [1] [mL/min/kg] | plasma t1/2 (Plasma stability assay) [h] | hepatocyte CLint at 1 μM [2] [µL/min/1e6 cells] | CLIV, mouse (in vivo systemic clearance) ([1]; listed as PROTAC 32, 15 mg/kg) [mL/min/kg] | GI50 (NGP; read-out: Cell GI50 72h, NGP (Figure 4B)) [nM] | GI50 (NGP; read-out: GI50 72h, 72h) [nM] | GI50 (NGP; read-out: pGI50 (converted)) [nM] | GI50 (SJNB-8) [nM] | bioavailability [1] [%] | CLIV, mouse (in vivo systemic clearance) ([1]; listed as PROTAC 33, 15 mg/kg) [mL/min/kg]
O=C1CCN(c2ccc(N3CCN(CC4CN(C(=O)[C@]5(Cc6cccc(Nc7nccs7)n6)CC[C@@H](Oc6cccc(Cl)c6F)CC5)C4)CC3)nc2)C(=O)N1 [PROTAC 23] | – | – | > 2 | 35 | > 2 | < 4.1 | – | – | 24 | 23.4 | – | – | –
Cc1cc(Nc2ccc(F)c(CC3(C(=O)N4CC(N5CCN(c6ccc(NC7CCC(=O)NC7=O)cc6F)CC5)C4)CCN(Cc4cccc(Cl)c4F)CC3)n2)n[nH]1 (stereo not shown) [PROTAC 29] | – | – | > 2 | 38 | > 2 | < 4.1 | – | – | 36 | 36.3 | – | – | –
Cc1cc(Nc2ccc(F)c(CC3(C(=O)N4CCC(F)(CN5CCN(c6ccc(N7CCC(=O)NC7=O)cn6)CC5)CC4)CCN(Cc4cccc(Cl)c4F)CC3)n2)n[nH]1 [SK5527] | 654 | > 10000 | > 2 | 12 | > 2 | 4.4 | – | – | 42 | 41.7 | < 100 | 11 | 12.2
O=C1CCN(c2ccc(N3CCN(CC4CCN(C(=O)[C@]5(Cc6cccc(Nc7nccs7)n6)CC[C@@H](Oc6cccc(Cl)c6F)CC5)CC4)CC3)nc2)C(=O)N1 [PROTAC 24] | – | 2390 | > 2 | 22 | > 2 | < 4.1 | – | – | 28 | 27.5 | – | – | –
O=C1CCC(Nc2ccc(N3CCN(C4CN(C(=O)[C@]5(Cc6cccc(Nc7nccs7)n6)CC[C@@H](Oc6cccc(Cl)c6F)CC5)C4)CC3)c(F)c2)C(=O)N1 (stereo partly shown) [PROTAC 18] | – | – | > 2 | 23 | > 2 | < 4.1 | – | – | 17 | 17 | – | – | –

Further lines, with some results ahead:

GI50 (SK-N-AS) [nM] | Ki (AURKB) [nM] | half-life at 1 μM (Plasma stability assay) [h] | clearance [1] [mL/min/kg] | plasma t1/2 (Plasma stability assay) [h] | hepatocyte CLint at 1 μM [2] [µL/min/1e6 cells] | CLIV, mouse (in vivo systemic clearance) ([1]; listed as PROTAC 32, 15 mg/kg) [mL/min/kg] | Compound | GI50 (NGP; read-out: Cell GI50 72h, NGP (Figure 4B)) [nM] | GI50 (NGP; read-out: GI50 72h, 72h) [nM] | GI50 (NGP; read-out: pGI50 (converted)) [nM] | GI50 (SJNB-8) [nM] | bioavailability [1] [%] | CLIV, mouse (in vivo systemic clearance) ([1]; listed as PROTAC 33, 15 mg/kg) [mL/min/kg]
3180 | 5610 | 1.12 | 114 | – | – | – | O=C1CCC(N2C(=O)c3cccc(OCCOCCOCCOCCNC(=O)[C@]4(Cc5cccc(Nc6nccs6)n5)CC[C@@H](Oc5cccc(Cl)c5F)CC4)c3C2=O)C(=O)N1 (stereo partly shown) [SK2188, reference compound] | 19 | 40 | 39.8 | 173 | – | –
994 | 7640 | > 2 | 18 | > 2 | < 4.1 | 18.1 | Cc1cc(Nc2ccc(F)c(CC3(C(=O)N4CCC(CN5CCN(c6ccc(N7CCC(=O)NC7=O)cn6)CC5)CC4)CCN(Cc4cccc(Cl)c4F)CC3)n2)n[nH]1 [SK4454] | – | 35 | 34.7 | < 100 | 7 | –
